# Data from patent US20140127158A1, “COMBINATION THERAPY FOR HEPATITIS C VIRUS INFECTION” (National Health Research Institute, priority 2012, published 2014).
# How the values were obtained:
# Assay type in all cases: cell-based, Hepatitis C virus
# [1] = test system: HCV genotype 1b Con1 replicon cells; test: Isolation of resistant replicons, genotype 1b
# Procedure: Selection of resistant replicon cells was performed by growing HCV genotype 1b Con1 and 2a JFH1 replicon cells in medium containing 0.2 or 200 nM and 60 nM or 1 μM of DBPR110, respectively. Medium containing the compound was added to monolayers of HCV1b-neo replicon cells at ˜25% confluence in the presence of 0.2 to 0.4 mg/mL of G418. Replicon cells maintained in the presence of dimethyl sulfoxide (DMSO) were used as a control. After 40 days, total RNA was isolated from both the control replicon cells and homogeneous cell lines containing compound using the TRIzol reagent (Invitrogen, Carlsbad, Calif.) according to the manufacturer's protocol. The RNA was amplified by reverse transcription-PCR (RT-PCR).
# To characterize the resistance profile of DBPR110, cell clones resistant to DBPR110 were obtained by culturing HCV genotype 1b replicon cells in the presence of G418 and increasing concentrations of DBPR110 ranging from 50- to 50,000-fold the EC50 value.
# [2] = test system: genotype 2a HCV replicon with NS5A amino acid substitutions; test: Transient replicon assay, genotype 2a NS5A amino acid substitutions; settings: for EC50 / EC90: Hepatitis C virus
# [3] = test system: genotype 1b HCV replicon with NS5A amino acid substitutions; test: Transient replicon assay, genotype 1b NS5A amino acid substitutions; settings: for EC50 / EC90: Hepatitis C virus
# [4] = test system: Infectious HCV, Genotype 2a, JFH1; test: Small molecule inhibition of HCV infectivity (luciferase)
# From the text: (5) Small molecule inhibition of HCV infectivity. To quantify the inhibitory effect of DBPR110 on HCV particle formation, HCV replication in DBPR110-treated and untreated cells was quantified using a luciferase activity assay, as described previously. See, e.g., Wakita et al., Nat Med 11:791-6 (2005); and Zhang et al., Antimicrob Agents Chemother 52:666-74 (2008). In vitro-transcribed RNA derived from full-length HCV2a JFH1 infectious cDNA clone with the luciferase reporter gene was delivered to Huh-7.5 cells by electroporation. The cells were seeded at 1×10^5 cells per well in 12-well plates and incubated for 4 h. The medium was then aspirated and replaced with 1 mL of complete medium containing DBPR110 in serial concentration. The plates with compounds were incubated for 72 h and the medium were then used to infect Huh-7.5 cells. Huh-7.5 cells were seeded in 12-well plates (1×10^5 cells/well) in DMEM with 10% FBS for 24 h before infection. The HCV cell culture (HCVcc)-containing supernatant per well was added to the Huh-7.5 cells. After 72 h of incubation at 37° C., the total cell lysate was assayed for luciferase expression (Promega).
# [5] = genotype 1b NS5A V153M + M202L + M265V
# [6] = genotype 1b NS5A Y93H + V153M + M202L + M265V
# [7] = genotype 1b NS5A Y93N + V153M + M202L + M265V
smiles,measurement,setting,value
O=C(N[C@@H](C(=O)N1CCC[C@H]1c1ncc(-c2ccc(-c3ccc(-c4cnc([C@@H]5CCCN5C(=O)[C@H](NC(=O)C5CC5)c5ccccc5)s4)cc3)cc2)s1)c1ccccc1)C1CC1 [DBPR110],fold more resistant than parental cells,"[1]; DBPR110-resistant cells (DBPR110R), genotype 1b","greater than 14,000 fold"
same,EC50,[1]; Hepatitis C virus,> 55 nM
same,EC50,[2]; genotype 2a NS5A P58L,53 nM
same,EC90,[2]; genotype 2a NS5A P58L,89.3 nM
same,EC50,[2]; genotype 2a NS5A Parental,0.25 ± 0.032 nM
same,EC90,[2]; genotype 2a NS5A Parental,0.592 ± 0.07 nM
same,EC50,[2]; genotype 2a NS5A T24A,16.2 nM
same,EC90,[2]; genotype 2a NS5A T24A,63.5 nM
same,EC50,[2]; genotype 2a NS5A Y93H,760 nM
same,EC90,[2]; genotype 2a NS5A Y93H,> 5000 nM
same,EC50,[2]; genotype 2a NS5A Y93N,51.8 nM
same,EC90,[2]; genotype 2a NS5A Y93N,85.2 nM
same,Fold resistance (EC50),[2]; genotype 2a NS5A P58L,212 fold
same,Fold resistance (EC90),[2]; genotype 2a NS5A P58L,151 fold
same,Fold resistance (EC50),[2]; genotype 2a NS5A Parental,1 fold
same,Fold resistance (EC90),[2]; genotype 2a NS5A Parental,1 fold
same,Fold resistance (EC50),[2]; genotype 2a NS5A T24A,65 fold
same,Fold resistance (EC90),[2]; genotype 2a NS5A T24A,107 fold
same,Fold resistance (EC50),[2]; genotype 2a NS5A Y93H,"3,041 fold"
same,Fold resistance (EC90),[2]; genotype 2a NS5A Y93H,">8,446 fold"
same,Fold resistance (EC50),[2]; genotype 2a NS5A Y93N,207 fold
same,Fold resistance (EC90),[2]; genotype 2a NS5A Y93N,144 fold
same,EC50,[3]; genotype 1b NS5A M202L,0.0021 ± 0.0006 nM
same,EC90,[3]; genotype 1b NS5A M202L,0.005 ± 0.0014 nM
same,EC50,[3]; genotype 1b NS5A M265V,0.002 ± 0.0009 nM
same,EC90,[3]; genotype 1b NS5A M265V,0.0051 ± 0.0017 nM
same,EC50,[3]; genotype 1b NS5A P58L,0.564 ± 0.194 nM
same,EC90,[3]; genotype 1b NS5A P58L,2.73 ± 0.909 nM
same,EC50,[3]; genotype 1b NS5A P58S,0.038 ± 0.014 nM
same,EC90,[3]; genotype 1b NS5A P58S,0.064 ± 0.011 nM
same,EC50,[3]; genotype 1b NS5A P58T,0.243 ± 0.04 nM
same,EC90,[3]; genotype 1b NS5A P58T,1.3 ± 0.219 nM
same,EC50,[3]; genotype 1b NS5A Parental,0.0015 ± 0.0006 nM
same,EC90,[3]; genotype 1b NS5A Parental,0.0042 ± 0.0021 nM
same,EC50,[3]; genotype 1b NS5A V153M,0.0013 ± 0.0005 nM
same,EC90,[3]; genotype 1b NS5A V153M,0.0041 ± 0.0019 nM
same,EC50,[3]; [5],0.0011 ± 0.0005 nM
same,EC90,[3]; [5],0.0031 ± 0.0011 nM
same,EC50,[3]; genotype 1b NS5A Y93C,0.078 ± 0.04 nM
same,EC90,[3]; genotype 1b NS5A Y93C,0.177 ± 0.062 nM
same,EC50,[3]; genotype 1b NS5A Y93H,1.41 nM
same,EC90,[3]; genotype 1b NS5A Y93H,7.34 nM
same,EC50,[3]; [6],8.74 nM
same,EC90,[3]; [6],37.7 nM
same,EC50,[3]; genotype 1b NS5A Y93N,3.82 nM
same,EC90,[3]; genotype 1b NS5A Y93N,13.3 nM
same,EC50,[3]; [7],27.3 nM
same,EC90,[3]; [7],98.9 nM
same,Fold resistance (EC50),[3]; genotype 1b NS5A M202L,1 fold
same,Fold resistance (EC90),[3]; genotype 1b NS5A M202L,1 fold
same,Fold resistance (EC50),[3]; genotype 1b NS5A M265V,1 fold
same,Fold resistance (EC90),[3]; genotype 1b NS5A M265V,1 fold
same,Fold resistance (EC50),[3]; genotype 1b NS5A P58L,376 fold
same,Fold resistance (EC90),[3]; genotype 1b NS5A P58L,650 fold
same,Fold resistance (EC50),[3]; genotype 1b NS5A P58S,25 fold
same,Fold resistance (EC90),[3]; genotype 1b NS5A P58S,15 fold
same,Fold resistance (EC50),[3]; genotype 1b NS5A P58T,162 fold
same,Fold resistance (EC90),[3]; genotype 1b NS5A P58T,310 fold
same,Fold resistance (EC50),[3]; genotype 1b NS5A Parental,1 fold
same,Fold resistance (EC90),[3]; genotype 1b NS5A Parental,1 fold
same,Fold resistance (EC50),[3]; genotype 1b NS5A V153M,1 fold
same,Fold resistance (EC90),[3]; genotype 1b NS5A V153M,1 fold
same,Fold resistance (EC50),[3]; [5],1 fold
same,Fold resistance (EC90),[3]; [5],1 fold
same,Fold resistance (EC50),[3]; genotype 1b NS5A Y93C,52 fold
same,Fold resistance (EC90),[3]; genotype 1b NS5A Y93C,42 fold
same,Fold resistance (EC50),[3]; genotype 1b NS5A Y93H,939 fold
same,Fold resistance (EC90),[3]; genotype 1b NS5A Y93H,"1,747 fold"
same,Fold resistance (EC50),[3]; [6],"5,824 fold"
same,Fold resistance (EC90),[3]; [6],"8,979 fold"
same,Fold resistance (EC50),[3]; genotype 1b NS5A Y93N,"2,547 fold"
same,Fold resistance (EC90),[3]; genotype 1b NS5A Y93N,"3,168 fold"
same,Fold resistance (EC90),[3]; [7],"23,550 fold"
same,Selective index,"[4]; CC50/EC50, Infectious HCV, Genotype 2a, JFH1",">720,461"
same,EC50,"[4]; Hepatitis C virus, read-out: Luciferase activity assay EC50",0.0183 nM
same,EC90,"[4]; Hepatitis C virus, read-out: Luciferase activity assay EC90",0.258 ± 0.0502 nM
